pIC50, pKd: −log10 of the molar value. Like-named read-outs stand apart in the source and are kept apart here. Where a SMILES comes first, the peptide text is derived from it. Bridges are numbered along the chain shown (N, C = ends). [ ]: non-standard residue; d: D form. The star is where a group is joined. hPhe(3-Cl-4-CF3) = N[C@@H](CCc1ccc(C(F)(F)F)c(Cl)c1)C(=O)O; 3Oxa8azabicyclo(3.2.1)octane = C1CC2COCC1N2*; NEtPhe(4-Me) = CCN[C@@H](Cc1ccc(C)cc1)C(=O)O; NMeGly(cPent) = CN[C@H](C(=O)O)C1CCCC1; NMeD = CN[C@@H](CC(=O)O)C(=O)O; NMeL = CN[C@@H](CC(C)C)C(=O)O; NMeAib = CNC(C)(C)C(=O)O; Nle = CCCC[C@H](N)C(=O)O; Piperidide = C1CCN(*)CC1; Ac5c = NC1(C(=O)O)CCCC1; Sar = CNCC(=O)O
Columns and labels:
[1] = test system: human lung cancer strain NCI-H441;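 note: cell proliferation inhibition after four days measured by CellTiter-Glo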
[2] = target: GDP-bound KRAS wild-type protein (Homo sapiens, UniProt P01116); assay: Binding to KRAS by surface plasmon resonance (SPR), Single Cycle Kinetics; settings: SPR, Single Cycle Kinetics, GDP-bound KRAS wild-type protein; read-out: KRAS KD
[3] = target: GDP-bound NRAS wild-type protein (Homo sapiens, UniProt P01111); assay: Binding to NRAS by surface plasmon resonance (SPR), Single Cycle Kinetics; settings: SPR, GDP-bound NRAS wild-type protein vs GDP-bound KRAS wild-type protein
[4] = target: GDP-bound HRAS wild-type protein (Homo sapiens, UniProt P01112); assay: Binding to HRAS by surface plasmon resonance (SPR), Single Cycle Kinetics; settings: SPR, GDP-bound HRAS wild-type protein vs GDP-bound KRAS wild-type protein
GDP-bound HRAS wild-type protein, sequence (P01112 whole entry): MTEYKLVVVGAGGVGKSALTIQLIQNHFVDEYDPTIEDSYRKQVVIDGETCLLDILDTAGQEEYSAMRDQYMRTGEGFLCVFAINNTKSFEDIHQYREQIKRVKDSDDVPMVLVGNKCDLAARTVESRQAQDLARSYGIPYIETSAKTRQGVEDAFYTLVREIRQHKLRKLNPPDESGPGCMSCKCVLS

GDP-bound KRAS wild-type protein, sequence (P01116 whole entry): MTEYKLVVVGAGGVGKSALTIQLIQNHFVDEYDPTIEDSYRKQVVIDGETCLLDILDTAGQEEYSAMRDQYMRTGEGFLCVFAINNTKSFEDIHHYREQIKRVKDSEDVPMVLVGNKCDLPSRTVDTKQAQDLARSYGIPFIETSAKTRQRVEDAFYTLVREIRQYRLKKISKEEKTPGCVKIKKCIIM
GDP-bound NRAS wild-type protein, sequence (P01111 whole entry): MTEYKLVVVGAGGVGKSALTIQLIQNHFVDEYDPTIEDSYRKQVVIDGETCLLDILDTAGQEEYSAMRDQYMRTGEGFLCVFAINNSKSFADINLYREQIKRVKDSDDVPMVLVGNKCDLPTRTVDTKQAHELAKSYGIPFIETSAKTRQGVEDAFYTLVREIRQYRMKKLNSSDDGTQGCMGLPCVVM

| SMILES | pIC50 ([1]; read-out: NCI-H441 IC50, NCI-H441 cells, four days, CellTiter-Glo) | pIC50 [1] | pKd [2] | NRAS/KRAS (ratio of KD value for NRAS to KD value for KRAS) [3] | HRAS/KRAS (ratio of KD value for HRAS to KD value for KRAS) [4] |
| --- | --- | --- | --- | --- | --- |
| CCCC[C@@H]1NC(=O)[C@H](CCc2ccc(C(F)(F)F)c(Cl)c2)NC(=O)CN(C)C(=O)[C@H](Cc2ccc(C)cc2)N(CC)C(=O)CN(C)C(=O)CN(C)C(=O)[C@H]([C@@H](C)CC)NC(=O)[C@H](CC(C)C)N(C)C(=O)C[C@@H](C(=O)N2CCCCC2)N(C)C(=O)[C@H](CC(C)C)NC(=O)C(C)(C)N(C)C1=O [PP0050] ([NMeL]I[Sar][Sar][NEtPhe(4-Me)][Sar][hPhe(3-Cl-4-CF3)][Nle][NMeAib]L[NMeD]-Piperidide; lactam N-11) | 6.30 | – | – | – | – |
| CC[C@H](C)[C@@H]1NC(=O)[C@H](CC(C)C)N(C)C(=O)C[C@@H](C(=O)N2C3CCC2COC3)N(C)C(=O)[C@H](C2CCCC2)N(C)C(=O)C2(CCCC2)NC(=O)[C@@H]2CCCN2C(=O)[C@H](CCc2ccc(C(F)(F)F)c(Cl)c2)NC(=O)CN(C)C(=O)[C@H](Cc2ccc(C)cc2)N(CC)C(=O)CN(C)C(=O)CN(C)C1=O [PP0051] ([NMeL]I[Sar][Sar][NEtPhe(4-Me)][Sar][hPhe(3-Cl-4-CF3)]P[Ac5c][NMeGly(cPent)][NMeD]-{3Oxa8azabicyclo(3.2.1)octane}; lactam N-11) | – | 7.66 | – | – | – |
| CCO[C@@H]1C[C@H]2C(=O)NC3(CC(C)(C)C3)C(=O)N(C)[C@@H](C(CC)CC)C(=O)N(C)[C@H](C(=O)N(C)C)CC(=O)N(C)[C@H]3CCCCC/C=C/c4ccc(cc4)C[C@@H](C(=O)N(C)CC(=O)N[C@@H](CCc4ccc(Cl)c(Cl)c4)C(=O)N2C1)N1CC/C=C\C[C@@H](C1=O)N(C)C(=O)CN(C)C(=O)[C@H]([C@@H](C)CC)NC3=O [PP3050] | – | – | 9.54 | AA (a compound having 20 or more is denoted as AA) | A (a compound having 10 or more and less than 20 is denoted as A) |
| CCO[C@@H]1C[C@H]2C(=O)NC3(CCC3)C(=O)N(C)[C@@H](C(CC)CC)C(=O)N(C)[C@H](C(=O)N3CCCC3)CC(=O)N(C)[C@H]3CCCCC/C=C/c4ccc(cc4)C[C@@H](C(=O)N(C)CC(=O)N[C@@H](CCc4ccc(Cl)c(Cl)c4)C(=O)N2C1)N1CC/C=C\C[C@@H](C1=O)N(C)C(=O)CN(C)C(=O)[C@H]([C@@H](C)CC)NC3=O [PP3052] | – | – | 9.59 | AA (a compound having 20 or more is denoted as AA) | A (a compound having 10 or more and less than 20 is denoted as A) |
| CC[C@H](C)[C@@H]1NC(=O)[C@@H]2CCC/C=C/c3ccc(cc3)C[C@@H](C(=O)N(C)CC(=O)N[C@@H](CCc3ccc(Cl)c(Cl)c3)C(=O)N3C[C@H](OC4CCC4)C[C@H]3C(=O)NC3(CC(C)(C)C3)C(=O)N(C)[C@@H](C3CCCC3)C(=O)N(C)[C@H](C(=O)N3CCCC3)CC(=O)N2C)N2CC/C=C\C[C@@H](C2=O)N(C)C(=O)CN(C)C1=O [PP3053] | – | – | 9.80 | A (a compound having 10 or more and less than 20 is denoted as A) | A (a compound having 10 or more and less than 20 is denoted as A) |
| CC[C@H](C)[C@@H]1NC(=O)[C@@H]2CCC/C=C/c3ccc(cc3)C[C@@H](C(=O)N(C)CC(=O)N[C@@H](CCc3ccc(Cl)c(Cl)c3)C(=O)N3C[C@H](OC4CCCC4)C[C@H]3C(=O)NC3(CC(C)(C)C3)C(=O)N(C)[C@@H](C3CCCC3)C(=O)N(C)[C@H](C(=O)N3CCCC3)CC(=O)N2C)N2CC/C=C\C[C@@H](C2=O)N(C)C(=O)CN(C)C1=O [PP3054] | – | – | 9.57 | A (a compound having 10 or more and less than 20 is denoted as A) | A (a compound having 10 or more and less than 20 is denoted as A) |
| CCO[C@@H]1C[C@H]2C(=O)N(C)C3(CC(C)(C)C3)C(=O)N(C)[C@@H](C3CCCC3)C(=O)N(C)[C@H](C(=O)N(C)C)CC(=O)N(C)[C@H]3CCC/C=C/c4ccc(cc4)C[C@@H](C(=O)N(C)CC(=O)N[C@@H](CCc4cc(F)c(C(F)(F)F)c(F)c4)C(=O)N2C1)N1CC/C=C\C[C@@H](C1=O)N(C)C(=O)CN(C)C(=O)[C@H]([C@@H](C)CC)NC3=O [PP3060] | – | – | 10.38 | B (a compound having 3 or more and less than 10 is denoted as B) | B (a compound having 3 or more and less than 10 is denoted as B) |
| CCO[C@@H]1C[C@H]2C(=O)N(C)C3(CC(C)(C)C3)C(=O)N(C)[C@@H](C3CCCC3)C(=O)N(C)[C@H](C(=O)N(C)C)CC(=O)N(C)[C@H]3CCCC/C=C/c4ccc(cc4)C[C@@H](C(=O)N(C)CC(=O)N[C@@H](CCc4ccc(Cl)c(Cl)c4)C(=O)N2C1)N1CC/C=C\C[C@@H](C1=O)N(C)C(=O)CN(C)C(=O)[C@H]([C@@H](C)CC)NC3=O [PP3062] | – | – | 10.18 | A (a compound having 10 or more and less than 20 is denoted as A) | A (a compound having 10 or more and less than 20 is denoted as A) |
| CCCO[C@@H]1C[C@H]2C(=O)NC3(CC(C)(C)C3)C(=O)N(C)[C@@H](C(CC)CC)C(=O)N(C)[C@H](C(=O)N(C)C)CC(=O)N(C)[C@H]3CCCc4ccc(cc4)C[C@@H](C(=O)N(C)CC(=O)N[C@@H](CCc4ccc(C(F)(F)F)c(OC)c4)C(=O)N2C1)N1CC/C=C\C[C@@H](C1=O)N(C)C(=O)CN(C)C(=O)[C@H]([C@@H](C)CC)NC3=O [PP3063] | – | – | 9.25 | B (a compound having 3 or more and less than 10 is denoted as B) | B (a compound having 3 or more and less than 10 is denoted as B) |
| CCCO[C@@H]1C[C@H]2C(=O)NC3(CC(C)(C)C3)C(=O)N(C)[C@@H](C3CCCC3)C(=O)N(C)[C@H](C(=O)N3CCCCC3)CC(=O)N(C)[C@H]3CCCc4ccc(cc4)C[C@@H](C(=O)N(C)CC(=O)N[C@@H](CCc4ccc(C(F)(F)F)c(OC)c4)C(=O)N2C1)N1CC/C=C\C[C@@H](C1=O)N(C)C(=O)CN(C)C(=O)[C@H]([C@@H](C)CC)NC3=O [PP3064] | – | – | 9.43 | B (a compound having 3 or more and less than 10 is denoted as B) | B (a compound having 3 or more and less than 10 is denoted as B) |
| CCCO[C@@H]1C[C@H]2C(=O)NC3(CC(C)(C)C3)C(=O)N(C)[C@@H](C3CCCC3)C(=O)N(C)[C@H](C(=O)N3CCCC3)CC(=O)N(C)[C@H]3CCCc4ccc(cc4)C[C@@H](C(=O)N(C)CC(=O)N[C@@H](CCc4ccc(C(F)(F)F)c(OC)c4)C(=O)N2C1)N1CC/C=C\C[C@@H](C1=O)N(C)C(=O)CN(C)C(=O)[C@H]([C@@H](C)CC)NC3=O [PP3065] | – | – | 9.64 | A (a compound having 10 or more and less than 20 is denoted as A) | B (a compound having 3 or more and less than 10 is denoted as B) |
| CCO[C@@H]1C[C@H]2C(=O)NC3(CC(C)(C)C3)C(=O)N(C)[C@@H](C3CCCC3)C(=O)N(C)[C@H](C(=O)N(C)C)CC(=O)N(C)[C@H]3CCCCCCc4ccc(cc4)C[C@@H](C(=O)N(C)CC(=O)N[C@@H](CCc4ccc(C(F)(F)F)c(OC)c4)C(=O)N2C1)N1CC/C=C\C[C@@H](C1=O)N(C)C(=O)CN(C)C(=O)[C@H]([C@@H](C)CC)NC3=O [PP3066] | – | – | 10.38 | A (a compound having 10 or more and less than 20 is denoted as A) | B (a compound having 3 or more and less than 10 is denoted as B) |
| CC[C@H](C)[C@@H]1NC(=O)[C@@H]2CCCCCCc3ccc(cc3)C[C@@H](C(=O)N(C)CC(=O)N[C@@H](CCc3ccc(C(F)(F)F)c(OC)c3)C(=O)N3C[C@H](OC(C)C)C[C@H]3C(=O)NC3(CC(C)(C)C3)C(=O)N(C)[C@@H](C3CCCC3)C(=O)N(C)[C@H](C(=O)N(C)C)CC(=O)N2C)N2CC/C=C\C[C@@H](C2=O)N(C)C(=O)CN(C)C1=O [PP3067] | – | – | 10.28 | A (a compound having 10 or more and less than 20 is denoted as A) | B (a compound having 3 or more and less than 10 is denoted as B) |
| CC[C@H](C)[C@@H]1NC(=O)[C@@H]2CCCCCCc3ccc(cc3)C[C@@H](C(=O)N(C)CC(=O)N[C@@H](CCc3ccc(C(F)(F)F)c(OC)c3)C(=O)N3C[C@H](OC4CCC4)C[C@H]3C(=O)NC3(CC(C)(C)C3)C(=O)N(C)[C@@H](C3CCCC3)C(=O)N(C)[C@H](C(=O)N(C)C)CC(=O)N2C)N2CC/C=C\C[C@@H](C2=O)N(C)C(=O)CN(C)C1=O [PP3068] | – | – | 10.30 | A (a compound having 10 or more and less than 20 is denoted as A) | B (a compound having 3 or more and less than 10 is denoted as B) |
| CC[C@H](C)[C@@H]1NC(=O)[C@@H]2CCCCCCc3ccc(cc3)C[C@@H](C(=O)N(C)CC(=O)N[C@@H](CCc3ccc(C(F)(F)F)c(OC)c3)C(=O)N3CC4(CC4)C[C@H]3C(=O)NC3(CC(C)(C)C3)C(=O)N(C)[C@@H](C3CCCC3)C(=O)N(C)[C@H](C(=O)N(C)C)CC(=O)N2C)N2CC/C=C\C[C@@H](C2=O)N(C)C(=O)CN(C)C1=O [PP3069] | – | – | 10.47 | A (a compound having 10 or more and less than 20 is denoted as A) | B (a compound having 3 or more and less than 10 is denoted as B) |
| CCO[C@@H]1C[C@H]2C(=O)NC3(CC(C)(C)C3)C(=O)N(C)[C@@H](C3CCCC3)C(=O)N(C)[C@H](C(=O)N(C)C)CC(=O)N(C)[C@H]3CCCCCCc4ccc(cc4)C[C@@H](C(=O)N(C)CC(=O)N[C@@H](CCc4ccc(Cl)c(Cl)c4)C(=O)N2C1)N1CC/C=C\C[C@@H](C1=O)N(C)C(=O)CN(C)C(=O)[C@H]([C@@H](C)CC)NC3=O [PP3071] | – | – | 9.92 | A (a compound having 10 or more and less than 20 is denoted as A) | B (a compound having 3 or more and less than 10 is denoted as B) |
